{
  "source": "paper PMC6051913",
  "about": "(2018)",
  "key": {"[1]": {"tested_on": "Bc 1–5 (RNA, riboswitch) GAUGUAACUGAAUGAAAUGGUGAAGGACGGGUCCACUUAUAACGAGAAGCGGAGGGACUGGCCCAAUGAAGCUUCAGCAACCAUUCAUUGCGAUGAAAAGGUGCUAAAUCCAGCAAAGGGAACUUUGGCAGAUAAGUUGUUGAGUAGAGUGUGAGCUCCGUAACUAGUUACAUC", "assay": "fluorescence titration", "conditions": "125 mM KCl, 10 mM MgCl2; 40 mM HEPES pH 7.5, 37 °C, 100 nM RNA, 10 µM DFHBI"}, "[2]": {"tested_on": "Bs 4-4 (RNA, riboswitch) GAUGUAACUGAAUGAAAUGGUGAAGGACGGGUCCACUUGGAAGAUAAGAAGCAAUUCUUAUCAAGAGAAGCAGAGGGACUGGCCCGACGAAGCUUCAGCAACCGGUGUAAUGGCGAUCAGCCAUGACCAAGGUGCUAAAUCCAGCAAGUUGUUGAGUAGAGUGUGAGCUCCGUAACUAGUUACAUC", "assay": "fluorescence titration", "conditions": "125 mM KCl, 10 mM MgCl2; 40 mM HEPES pH 7.5, 37 °C, 100 nM RNA, 10 µM DFHBI"}},
  "data": [
    {"smiles": "C[S+](CC[C@H](N)C(=O)O)C[C@H]1O[C@@H](n2cnc3c(N)ncnc32)[C@H](O)[C@@H]1O", "note": "(some centres unmarked)", "values": [
      {"measurement": "KD", "setting": "[1]", "result": "~ 1.7 µM"},
      {"measurement": "dissociation constant", "setting": "[2]", "result": 1.0, "unit": "µM"}
    ]}
  ]
}
